Laboratory results: PMC9186412, “Rational Framework for the Design of Trp- and Arg-Rich Peptide Antibiotics Against Multidrug-Resistant Bacteria” (Frontiers in Microbiology, 2022)
In brackets after ≈: the same amount, converted by molar mass. Read-outs that look alike come from different tables or passages of the source. Where no end group is shown, it is not given here.

What was measured:
CDC AR isolates [1] = test system: CDC AR isolates; design: key: S (green), susceptible; I (blue), intermediate; R (red), resistant; conditions: data provided by the CDC, ref CDC, cited from earlier work
From the text: Supplement Table_3.XLSX, sheet "CDC AR isolates profiles" | column: G(-) strains

A. baumannii = assay: microbe, parasite or virus in culture; format: cell-based, Acinetobacter baumannii; conditions: 18 h
Method: (§1) Bacterial clinical isolates, used for initial screening and in previous studies ([Deslouches et al., 2013]; [Lin et al., 2018]), were anonymously provided by the clinical microbiology laboratory of the University of Pittsburgh medical Center. The panel used for secondary screening was from [CDC (2013)] (Supplementary Table 3), with resistance profiles data. Bacteria are stored in lock-secured –80°C freezer and typically retrieved by obtaining single colonies on agar plates prior for subsequent liquid broth cultures. Suspensions of test bacteria were prepared from log phase of growth by diluting overnight cultures at 1:100 with fresh cation-adjusted MHB (MHB2, Millipore Sigma, United States) and incubating for additional 3–4 h. Bacteria were spun at 3,000 × g for 10 min and the pellet resuspended in test condition media (Millipore Sigma, United States) to determine bacterial turbidity using a Den-1B densitometer (Grant Instruments, United States) at 0.5 McFarland (unit of bacterial density) corresponding to […].
(§2) To examine antibacterial activity, we used minor modifications of a standard growth inhibition assay endorsed by the Clinical and Laboratory Standards Institute (CLSI), as previously described ([Deslouches et al., 2013]). Bacteria were incubated with each of the indicated peptides in MHB2. The bacterial cells were kept in an incubator for 18 h at 37°C, which is linked to a robotic system that feeds a plate reader every hour with one of 8 × 96-well plates. This set-up allows the collection of growth kinetic data at A 570 (absorbance at 570 nm) to examine growth inhibition in real time (BioTek Instruments, United States). […] The assays are typically repeated a second time. If the MIC is different, a third experimental trial is performed to confirm the MIC. To assess bactericidal properties of the peptide, the assay was modified by using 15% fetal bovine serum (FBS, for a more physiologically relevant test condition) mixed with 25% MHB2 and 60% PBS. Bacterial cells (colony forming unit/mL or CFU/mL) were enumerated after incubating treated bacteria for 3 h and plating serially diluted samples on broth agar medium at 37°C overnight. Minimum bactericidal concentration (MBC) was determined as the peptide concentration at which complete bacterial killing was observed. […] Data were analyzed using GraphPad Prism software.

Enterobacter spp = assay: microbe, parasite or virus in culture; format: cell-based, Enterobacter spp (aerogenes, cloacae); conditions: Enterobacter, 18 h, UPMC, MHB2, 18 h, 37°C
Method: as §1, §2

K. pneumoniae = assay: microbe, parasite or virus in culture; format: cell-based, Klebsiella pneumoniae; conditions: Klebsiella pneumoniae, 18 h, MHB2, 18 h, 37°C
Method: as §1, §2

E. coli = assay: microbe, parasite or virus in culture; format: cell-based, Escherichia coli
Method: as §1, §2

CDC AR isolates [2] = test system: CDC AR isolates; design: key: S (green), susceptible; I (blue), intermediate; R (red), resistant; conditions: data provided by the CDC, ref CDC, cited from earlier work; remark: listed apart in the source
[3] = Acinetobacter baumannii AB273, CDC AR isolate
[4] = Acinetobacter baumannii AB274, CDC AR isolate
[5] = Acinetobacter baumannii AB275, CDC AR isolate
[6] = Acinetobacter baumannii AB276, CDC AR isolate
[7] = Enterobacter cloacae E62, CDC AR isolate
[8] = Enterobacter cloacae E544, CDC AR isolate
[9] = Enterobacter cloacae E545, CDC AR isolate
[10] = Enterobacter cloacae E546, CDC AR isolate
[11] = Escherichia coli EC541, CDC AR isolate
[12] = Escherichia coli EC543, CDC AR isolate
[13] = Escherichia coli EC544, CDC AR isolate
[14] = Escherichia coli EC549, CDC AR isolate
[15] = Klebsiella pneumoniae KP542, CDC AR isolate
[16] = Klebsiella pneumoniae KP548, CDC AR isolate
[17] = Klebsiella pneumoniae KP550, CDC AR isolate
[18] = Klebsiella pneumoniae KP552, CDC AR isolate
[19] = Enterococcus faecium EF500, CDC AR isolate
[20] = Enterococcus faecium EF671, CDC AR isolate
[21] = Enterococcus faecium EF672, CDC AR isolate
[22] = Staphylococcus aureus SA462, CDC AR isolate
[23] = Staphylococcus aureus SA463, CDC AR isolate
[24] = Enterococcus faecium EF673, CDC AR isolate
[25] = Staphylococcus aureus SA461, CDC AR isolate
[26] = Staphylococcus aureus SA561, CDC AR isolate

For `C[C@@H](O)[C@H]1C(=O)N2C(C(=O)O)=C(S[C@@H]3CN[C@H](C(=O)N(C)C)C3)[C@H](C)[C@H]12` [Meropenem, reference compound], the Antibiotic susceptibility profile (CDC AR isolates [1]; [3]) is listed as “R”, the Antibiotic susceptibility profile (CDC AR isolates [1]; [4]) is listed as “R” and the Antibiotic susceptibility profile (CDC AR isolates [1]; [5]) is listed as “R”. For the same compound, the Antibiotic susceptibility profile (CDC AR isolates [1]; [6]) was “R”, the Antibiotic susceptibility profile (CDC AR isolates [1]; [7]) was “S” and the Antibiotic susceptibility profile (CDC AR isolates [1]; [8]) was “R”. For the same compound, the Antibiotic susceptibility profile (CDC AR isolates [1]; [9]) was “S”, the Antibiotic susceptibility profile (CDC AR isolates [1]; [10]) was “I” and the Antibiotic susceptibility profile (CDC AR isolates [1]; [11]) was “S”. For the same compound, the Antibiotic susceptibility profile (CDC AR isolates [1]; [12]) was “I”, the Antibiotic susceptibility profile (CDC AR isolates [1]; [13]) was “R” and the Antibiotic susceptibility profile (CDC AR isolates [1]; [14]) was “R”. The Antibiotic susceptibility profile (CDC AR isolates [1]; [15]) was “I”, the Antibiotic susceptibility profile (CDC AR isolates [1]; [16]) was “R” and the Antibiotic susceptibility profile (CDC AR isolates [1]; [17]) was “R”. For the same compound, the Antibiotic susceptibility profile (CDC AR isolates [1]; [18]) was “R”, the Antibiotic susceptibility profile (CDC AR isolates [1]; Pseudomonas aeruginosa PA229, CDC AR isolate) was “R” and the Antibiotic susceptibility profile (CDC AR isolates [1]; Pseudomonas aeruginosa PA230, CDC AR isolate) was “R”. For the same compound, the Antibiotic susceptibility profile (CDC AR isolates [1]; Pseudomonas aeruginosa PA231, CDC AR isolate) was “R”, the Antibiotic susceptibility profile (CDC AR isolates [1]; Pseudomonas aeruginosa PA232, CDC AR isolate) was “I” and the Antibiotic susceptibility profile (CDC AR isolates [1]; Pseudomonas aeruginosa PA239, CDC AR isolate) was “R”. For the same compound, the MIC (A. baumannii; Acinetobacter baumannii, strain AB-A2, UPMC clinical strain, MHB2, 18 h, 37°C, A570, confirmed by 2nd or 3rd trial) was 4 µM (≈ 1.53 µg/mL), the MIC (A. baumannii; Acinetobacter baumannii, strain AB-A3, UPMC, MHB2, 18 h, 37°C) was over 16 µM and the MIC (A. baumannii; Acinetobacter baumannii, strain AB-F8, UPMC, MHB2, 18 h, 37°C) was 8 µM (≈ 3.07 µg/mL). The MIC (A. baumannii; Acinetobacter baumannii, strain AB-F9, UPMC, MHB2, 18 h, 37°C) was 8 µM (≈ 3.07 µg/mL), the MIC (Enterobacter spp; strain EA518 (aerogenes)) was over 16 µM and the MIC (Enterobacter spp; strain EA596 (aerogenes)) was 16 µM (≈ 6.14 µg/mL). For the same compound, the MIC (Enterobacter spp; strain EC470 (cloacae)) was over 16 µM, the MIC (Enterobacter spp; strain EC560 (cloacae)) was 16 µM (≈ 6.14 µg/mL) and the MIC (K. pneumoniae; strain KP43816) was 1 µM (≈ 0.383 µg/mL). For the same compound, the MIC (K. pneumoniae; strain KPA5 (colistin-resistant), UPMC) was 2 µM (≈ 0.767 µg/mL), the MIC (K. pneumoniae; strain KPB3, UPMC) was 2 µM (≈ 0.767 µg/mL) and the MIC (K. pneumoniae; strain KPC3, UPMC) was 1 µM (≈ 0.383 µg/mL). The MIC (E. coli; Escherichia coli, 18 h, strain Eco25922, MHB2, 18 h, 37°C) was 0.5 µM (≈ 0.192 µg/mL), the MIC (E. coli; Escherichia coli, 18 h, strain YDC107, UPMC, MHB2, 18 h, 37°C) was 1 µM (≈ 0.383 µg/mL) and the MIC (E. coli; Escherichia coli, 18 h, strain YDC337, UPMC, MHB2, 18 h, 37°C) was 8 µM (≈ 3.07 µg/mL). It also gave an MIC (E. coli; Escherichia coli, 18 h, strain YDC748, UPMC, MHB2, 18 h, 37°C) of 8 µM (≈ 3.07 µg/mL).
For `CO[C@H]1/C=C/O[C@@]2(C)Oc3c(C)c(O)c4c(O)c(c(/C=N/N5CCN(C)CC5)c(O)c4c3C2=O)NC(=O)/C(C)=C\C=C\[C@H](C)[C@H](O)[C@@H](C)[C@@H](O)[C@@H](C)[C@H](OC(C)=O)[C@@H]1C` [Rifampin], the Antibiotic susceptibility profile (CDC AR isolates [1]; [19]) is given as “R”, the Antibiotic susceptibility profile (CDC AR isolates [1]; [20]) is given as “I” and the Antibiotic susceptibility profile (CDC AR isolates [1]; [21]) is given as “I”. For the same compound, the Antibiotic susceptibility profile (CDC AR isolates [1]; [22]) was “S”, the Antibiotic susceptibility profile (CDC AR isolates [1]; [23]) was “S” and the Antibiotic susceptibility profile (CDC AR isolates [2]; [24]) was “S”. The Antibiotic susceptibility profile (CDC AR isolates [2]; [25]) was “S”.
In the case of `CN(C)[C@@H]1C(O)=C(C(N)=O)C(=O)[C@@]2(O)C(O)=C3C(=O)c4c(O)cccc4[C@@](C)(O)[C@H]3C[C@@H]12` [Tetracycline], the Antibiotic susceptibility profile (CDC AR isolates [1]; [3]) is listed as “R”, the Antibiotic susceptibility profile (CDC AR isolates [1]; [4]) is listed as “R” and the Antibiotic susceptibility profile (CDC AR isolates [1]; [5]) is listed as “R”. For the same compound, the Antibiotic susceptibility profile (CDC AR isolates [1]; [6]) was “S”, the Antibiotic susceptibility profile (CDC AR isolates [1]; [7]) was “S” and the Antibiotic susceptibility profile (CDC AR isolates [1]; [8]) was “R”. For the same compound, the Antibiotic susceptibility profile (CDC AR isolates [1]; [9]) was “I”, the Antibiotic susceptibility profile (CDC AR isolates [1]; [10]) was “R” and the Antibiotic susceptibility profile (CDC AR isolates [1]; [11]) was “R”. For the same compound, the Antibiotic susceptibility profile (CDC AR isolates [1]; [12]) was “R”, the Antibiotic susceptibility profile (CDC AR isolates [1]; [13]) was “R” and the Antibiotic susceptibility profile (CDC AR isolates [1]; [14]) was “R”. For the same compound, the Antibiotic susceptibility profile (CDC AR isolates [1]; [15]) was “R”, the Antibiotic susceptibility profile (CDC AR isolates [1]; [16]) was “I” and the Antibiotic susceptibility profile (CDC AR isolates [1]; [17]) was “S”. The Antibiotic susceptibility profile (CDC AR isolates [1]; [18]) was “R”, the Antibiotic susceptibility profile (CDC AR isolates [1]; [22]) was “S” and the Antibiotic susceptibility profile (CDC AR isolates [1]; [23]) was “S”. For the same compound, the Antibiotic susceptibility profile (CDC AR isolates [1]; [26]) was “R” and the Antibiotic susceptibility profile (CDC AR isolates [2]; [25]) was “S”.
For `CN[C@H](CC(C)C)C(=O)N[C@H]1C(=O)N[C@@H](CC(N)=O)C(=O)N[C@H]2C(=O)N[C@H]3C(=O)N[C@H](C(=O)N[C@H](C(=O)O)c4cc(O)cc(O)c4-c4cc3ccc4O)[C@H](O)c3ccc(c(Cl)c3)Oc3cc2cc(c3O[C@@H]2O[C@H](CO)[C@@H](O)[C@H](O)[C@H]2O[C@H]2C[C@](C)(N)[C@H](O)[C@H](C)O2)Oc2ccc(cc2Cl)[C@H]1O` [Vancomycin], the Antibiotic susceptibility profile (CDC AR isolates [1]; [19]) is listed as “S”, the Antibiotic susceptibility profile (CDC AR isolates [1]; [20]) is listed as “S” and the Antibiotic susceptibility profile (CDC AR isolates [1]; [21]) is listed as “S”. The Antibiotic susceptibility profile (CDC AR isolates [1]; [22]) was “I”, the Antibiotic susceptibility profile (CDC AR isolates [1]; [23]) was “S” and the Antibiotic susceptibility profile (CDC AR isolates [1]; [26]) was “S”. The Antibiotic susceptibility profile (CDC AR isolates [2]; [24]) was “S” and the Antibiotic susceptibility profile (CDC AR isolates [2]; [25]) was “S”.
For Penicillin, the Antibiotic susceptibility profile (CDC AR isolates [1]; [19]) is given as “R”, the Antibiotic susceptibility profile (CDC AR isolates [1]; [20]) is given as “S” and the Antibiotic susceptibility profile (CDC AR isolates [1]; [21]) is given as “S”. The Antibiotic susceptibility profile (CDC AR isolates [1]; [22]) was “R”, the Antibiotic susceptibility profile (CDC AR isolates [1]; [23]) was “R” and the Antibiotic susceptibility profile (CDC AR isolates [1]; [26]) was “R”. The Antibiotic susceptibility profile (CDC AR isolates [2]; [24]) was “S” and the Antibiotic susceptibility profile (CDC AR isolates [2]; [25]) was “S”.
For RRVWRRVRRVWRRVRRVVRRVW [E71], the MIC (A. baumannii) was 8 µM.
RRVWRRVRRVWRRVRRWVRRVV [E72] gave an MIC (E. coli) of 0.5 µM.
For RRWVRWVRRWVRWVRR [E80], the MIC (A. baumannii) was 16 µM.
In the case of RVWRRVRRVWRRVRRVWRRV [E69], the MIC (A. baumannii) is reported as 8 µM.
In the case of Teicoplanin, the Antibiotic susceptibility profile (CDC AR isolates [1]; [19]) is listed as “S”, the Antibiotic susceptibility profile (CDC AR isolates [1]; [20]) is listed as “S” and the Antibiotic susceptibility profile (CDC AR isolates [1]; [21]) is listed as “S”. For the same compound, the Antibiotic susceptibility profile (CDC AR isolates [2]; [24]) was “S”.
